Measurements reported in ChEMBL document CHEMBL3991601, “The target landscape of clinical kinase drugs” (Science, 2017).
Counter-ions that a name gives are not always drawn. Active and inactive are the calls of the source. Rule as the data show it, for most assays here: actives have a measured Kd and inactives only a lower limit.

Legend:
[1] = target: Tyrosine-protein kinase ABL1 (Homo sapiens, UniProt P00519)
[2] = target: RAC-gamma serine/threonine-protein kinase (Homo sapiens, UniProt Q9Y243)
[3] = target: T1, Serine/threonine-protein kinase Chk1 (Homo sapiens, UniProt O14757)
T1 sequence (O14757 whole entry): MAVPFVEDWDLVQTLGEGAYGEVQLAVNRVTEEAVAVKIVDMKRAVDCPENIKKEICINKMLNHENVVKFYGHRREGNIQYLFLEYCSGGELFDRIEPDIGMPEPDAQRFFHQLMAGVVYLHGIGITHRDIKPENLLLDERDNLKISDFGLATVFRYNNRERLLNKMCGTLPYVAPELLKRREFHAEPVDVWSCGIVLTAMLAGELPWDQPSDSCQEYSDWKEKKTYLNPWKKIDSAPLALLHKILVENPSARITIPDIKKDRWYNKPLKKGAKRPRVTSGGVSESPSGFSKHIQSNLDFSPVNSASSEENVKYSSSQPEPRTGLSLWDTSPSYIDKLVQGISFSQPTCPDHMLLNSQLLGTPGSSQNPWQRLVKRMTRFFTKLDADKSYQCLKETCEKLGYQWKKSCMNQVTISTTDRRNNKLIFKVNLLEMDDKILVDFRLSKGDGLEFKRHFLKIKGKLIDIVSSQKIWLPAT

Ephrin type-A receptor 4 = Ephrin type-A receptor 4 (Homo sapiens, UniProt P54764)
Pyridoxal kinase = target: T2, Pyridoxal kinase (Homo sapiens, UniProt O00764)
T2 sequence (O00764 whole entry): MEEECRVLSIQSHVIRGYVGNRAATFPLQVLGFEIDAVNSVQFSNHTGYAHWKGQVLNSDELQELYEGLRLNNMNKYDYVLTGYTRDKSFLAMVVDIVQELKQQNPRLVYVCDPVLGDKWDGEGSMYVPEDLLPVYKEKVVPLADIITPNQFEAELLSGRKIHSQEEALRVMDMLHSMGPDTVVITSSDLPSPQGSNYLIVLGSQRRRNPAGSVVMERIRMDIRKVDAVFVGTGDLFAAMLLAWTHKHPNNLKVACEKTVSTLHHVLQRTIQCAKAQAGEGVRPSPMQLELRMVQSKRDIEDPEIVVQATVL

[4] = target: Protein kinase C delta type (Homo sapiens, UniProt Q05655)
[5] = target: Protein kinase C theta type (Homo sapiens, UniProt Q04759)
[6] = target: T3, Serine/threonine-protein kinase D3 (Homo sapiens, UniProt O94806)
T3 sequence (O94806 whole entry): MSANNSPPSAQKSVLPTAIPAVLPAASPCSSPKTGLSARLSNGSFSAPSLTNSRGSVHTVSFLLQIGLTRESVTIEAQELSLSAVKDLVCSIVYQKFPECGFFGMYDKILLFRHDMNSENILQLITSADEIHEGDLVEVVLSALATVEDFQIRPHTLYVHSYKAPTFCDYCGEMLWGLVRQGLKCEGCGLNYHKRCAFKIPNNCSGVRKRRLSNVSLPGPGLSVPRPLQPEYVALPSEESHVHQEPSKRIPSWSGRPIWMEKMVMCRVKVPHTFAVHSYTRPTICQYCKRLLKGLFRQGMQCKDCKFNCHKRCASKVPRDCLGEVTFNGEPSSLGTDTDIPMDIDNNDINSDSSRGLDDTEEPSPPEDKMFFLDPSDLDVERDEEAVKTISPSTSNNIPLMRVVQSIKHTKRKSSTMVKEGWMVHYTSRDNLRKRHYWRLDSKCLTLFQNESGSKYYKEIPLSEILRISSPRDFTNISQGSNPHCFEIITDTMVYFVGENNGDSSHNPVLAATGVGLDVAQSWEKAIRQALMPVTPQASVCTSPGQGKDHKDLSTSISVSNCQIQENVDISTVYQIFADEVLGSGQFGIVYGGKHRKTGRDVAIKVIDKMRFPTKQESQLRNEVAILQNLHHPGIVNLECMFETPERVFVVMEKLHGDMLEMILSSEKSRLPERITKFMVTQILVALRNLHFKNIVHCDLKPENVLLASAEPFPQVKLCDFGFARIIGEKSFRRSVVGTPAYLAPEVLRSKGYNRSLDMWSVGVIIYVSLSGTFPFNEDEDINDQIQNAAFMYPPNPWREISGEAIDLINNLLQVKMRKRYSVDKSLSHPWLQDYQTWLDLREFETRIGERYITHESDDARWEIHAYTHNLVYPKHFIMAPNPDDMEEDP

ADP/ATP translocase 3 = target: T4, ADP/ATP translocase 3 (Homo sapiens, UniProt P12236)
T4 sequence (P12236 whole entry): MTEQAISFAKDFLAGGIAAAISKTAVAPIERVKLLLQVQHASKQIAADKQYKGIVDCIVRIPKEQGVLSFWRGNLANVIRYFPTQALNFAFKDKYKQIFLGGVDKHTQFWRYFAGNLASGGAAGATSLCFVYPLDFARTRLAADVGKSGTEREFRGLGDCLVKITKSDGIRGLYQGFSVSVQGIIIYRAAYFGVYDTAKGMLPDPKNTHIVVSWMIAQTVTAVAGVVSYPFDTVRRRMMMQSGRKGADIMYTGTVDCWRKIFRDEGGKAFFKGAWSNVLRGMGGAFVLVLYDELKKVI

[7] = target: Serine/threonine-protein kinase 26 (Homo sapiens, UniProt Q9P289)
[8] = target: T5, Serine/threonine-protein kinase 4 (Homo sapiens, UniProt Q13043)
T5 sequence (Q13043 whole entry): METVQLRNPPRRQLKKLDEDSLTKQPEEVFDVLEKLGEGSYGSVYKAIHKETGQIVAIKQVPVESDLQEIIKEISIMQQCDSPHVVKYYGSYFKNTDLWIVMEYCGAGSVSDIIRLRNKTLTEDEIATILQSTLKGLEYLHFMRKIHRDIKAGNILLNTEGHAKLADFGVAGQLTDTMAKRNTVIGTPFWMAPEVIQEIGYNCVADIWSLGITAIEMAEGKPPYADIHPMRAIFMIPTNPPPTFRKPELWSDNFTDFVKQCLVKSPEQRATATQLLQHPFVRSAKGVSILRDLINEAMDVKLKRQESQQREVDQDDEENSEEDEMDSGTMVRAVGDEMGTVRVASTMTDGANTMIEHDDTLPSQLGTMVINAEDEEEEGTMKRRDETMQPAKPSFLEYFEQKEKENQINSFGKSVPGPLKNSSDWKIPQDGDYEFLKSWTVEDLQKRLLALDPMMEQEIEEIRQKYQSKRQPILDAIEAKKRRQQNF
Also: in the data inactive means no Kd found up to 30 µM.

Protein kinase C theta type, sequence (Q04759 whole entry): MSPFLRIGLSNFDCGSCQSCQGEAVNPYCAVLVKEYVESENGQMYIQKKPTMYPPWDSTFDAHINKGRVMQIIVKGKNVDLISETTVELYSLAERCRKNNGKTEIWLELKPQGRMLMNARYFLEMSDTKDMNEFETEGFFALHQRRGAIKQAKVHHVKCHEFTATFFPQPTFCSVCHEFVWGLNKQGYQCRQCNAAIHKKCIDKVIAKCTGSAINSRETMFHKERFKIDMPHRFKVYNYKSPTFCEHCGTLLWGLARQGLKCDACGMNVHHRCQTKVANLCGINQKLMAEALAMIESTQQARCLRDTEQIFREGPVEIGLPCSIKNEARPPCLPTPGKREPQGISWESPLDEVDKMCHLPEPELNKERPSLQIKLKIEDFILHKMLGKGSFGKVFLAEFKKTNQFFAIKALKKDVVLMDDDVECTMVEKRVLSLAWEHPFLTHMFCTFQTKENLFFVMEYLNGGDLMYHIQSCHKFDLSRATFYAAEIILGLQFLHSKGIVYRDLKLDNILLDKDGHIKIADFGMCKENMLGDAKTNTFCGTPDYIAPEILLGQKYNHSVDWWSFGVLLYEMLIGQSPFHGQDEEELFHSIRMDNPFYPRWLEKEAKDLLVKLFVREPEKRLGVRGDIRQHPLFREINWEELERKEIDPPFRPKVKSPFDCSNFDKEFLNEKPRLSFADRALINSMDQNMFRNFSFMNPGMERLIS
Serine/threonine-protein kinase 26, sequence (Q9P289 whole entry): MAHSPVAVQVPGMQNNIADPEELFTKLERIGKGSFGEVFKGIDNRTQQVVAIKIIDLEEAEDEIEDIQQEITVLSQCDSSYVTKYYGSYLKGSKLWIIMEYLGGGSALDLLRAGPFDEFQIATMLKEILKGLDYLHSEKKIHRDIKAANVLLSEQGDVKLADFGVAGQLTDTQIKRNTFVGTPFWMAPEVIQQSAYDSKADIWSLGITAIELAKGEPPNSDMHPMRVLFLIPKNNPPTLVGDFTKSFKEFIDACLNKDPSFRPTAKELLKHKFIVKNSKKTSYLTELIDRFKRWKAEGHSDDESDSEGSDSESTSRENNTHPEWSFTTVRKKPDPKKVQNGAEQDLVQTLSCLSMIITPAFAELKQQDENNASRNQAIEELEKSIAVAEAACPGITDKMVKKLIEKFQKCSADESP
RAC-gamma serine/threonine-protein kinase, sequence (Q9Y243 whole entry): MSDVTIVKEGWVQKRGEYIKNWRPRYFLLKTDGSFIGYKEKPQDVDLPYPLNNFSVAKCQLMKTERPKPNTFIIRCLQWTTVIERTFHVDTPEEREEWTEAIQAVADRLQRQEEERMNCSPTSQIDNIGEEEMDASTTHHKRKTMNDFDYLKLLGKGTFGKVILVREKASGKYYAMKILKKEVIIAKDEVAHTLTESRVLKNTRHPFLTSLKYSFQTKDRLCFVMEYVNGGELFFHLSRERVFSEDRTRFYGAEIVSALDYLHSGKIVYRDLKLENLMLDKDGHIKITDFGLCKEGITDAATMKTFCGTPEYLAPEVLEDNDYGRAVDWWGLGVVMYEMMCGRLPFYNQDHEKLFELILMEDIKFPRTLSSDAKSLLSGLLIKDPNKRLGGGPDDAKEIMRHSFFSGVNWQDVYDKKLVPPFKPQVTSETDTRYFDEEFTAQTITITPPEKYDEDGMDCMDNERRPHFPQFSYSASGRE
Ephrin type-A receptor 4, sequence (P54764 whole entry): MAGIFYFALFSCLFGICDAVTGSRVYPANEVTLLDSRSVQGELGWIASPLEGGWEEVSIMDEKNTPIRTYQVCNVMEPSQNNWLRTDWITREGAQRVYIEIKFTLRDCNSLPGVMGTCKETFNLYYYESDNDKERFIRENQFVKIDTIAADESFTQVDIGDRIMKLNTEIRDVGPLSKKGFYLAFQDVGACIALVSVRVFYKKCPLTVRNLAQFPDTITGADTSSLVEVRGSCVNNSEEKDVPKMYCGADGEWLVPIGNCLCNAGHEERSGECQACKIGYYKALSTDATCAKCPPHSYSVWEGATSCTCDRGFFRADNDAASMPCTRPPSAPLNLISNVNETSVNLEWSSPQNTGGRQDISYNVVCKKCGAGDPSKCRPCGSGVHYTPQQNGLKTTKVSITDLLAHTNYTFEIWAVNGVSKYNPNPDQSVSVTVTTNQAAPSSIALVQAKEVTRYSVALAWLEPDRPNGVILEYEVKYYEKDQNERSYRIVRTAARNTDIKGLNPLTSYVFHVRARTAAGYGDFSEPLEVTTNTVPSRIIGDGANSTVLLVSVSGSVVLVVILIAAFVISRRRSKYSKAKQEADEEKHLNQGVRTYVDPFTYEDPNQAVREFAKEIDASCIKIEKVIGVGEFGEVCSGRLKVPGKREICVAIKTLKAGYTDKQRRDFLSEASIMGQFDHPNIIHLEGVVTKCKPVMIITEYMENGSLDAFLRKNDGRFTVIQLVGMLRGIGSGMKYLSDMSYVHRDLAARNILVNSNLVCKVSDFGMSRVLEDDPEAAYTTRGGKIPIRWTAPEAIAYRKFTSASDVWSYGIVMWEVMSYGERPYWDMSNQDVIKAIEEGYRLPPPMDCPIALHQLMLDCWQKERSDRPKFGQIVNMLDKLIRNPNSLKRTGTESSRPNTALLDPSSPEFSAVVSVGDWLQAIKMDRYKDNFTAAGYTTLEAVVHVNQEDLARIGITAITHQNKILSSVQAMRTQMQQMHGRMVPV
Tyrosine-protein kinase ABL1, sequence (P00519 whole entry): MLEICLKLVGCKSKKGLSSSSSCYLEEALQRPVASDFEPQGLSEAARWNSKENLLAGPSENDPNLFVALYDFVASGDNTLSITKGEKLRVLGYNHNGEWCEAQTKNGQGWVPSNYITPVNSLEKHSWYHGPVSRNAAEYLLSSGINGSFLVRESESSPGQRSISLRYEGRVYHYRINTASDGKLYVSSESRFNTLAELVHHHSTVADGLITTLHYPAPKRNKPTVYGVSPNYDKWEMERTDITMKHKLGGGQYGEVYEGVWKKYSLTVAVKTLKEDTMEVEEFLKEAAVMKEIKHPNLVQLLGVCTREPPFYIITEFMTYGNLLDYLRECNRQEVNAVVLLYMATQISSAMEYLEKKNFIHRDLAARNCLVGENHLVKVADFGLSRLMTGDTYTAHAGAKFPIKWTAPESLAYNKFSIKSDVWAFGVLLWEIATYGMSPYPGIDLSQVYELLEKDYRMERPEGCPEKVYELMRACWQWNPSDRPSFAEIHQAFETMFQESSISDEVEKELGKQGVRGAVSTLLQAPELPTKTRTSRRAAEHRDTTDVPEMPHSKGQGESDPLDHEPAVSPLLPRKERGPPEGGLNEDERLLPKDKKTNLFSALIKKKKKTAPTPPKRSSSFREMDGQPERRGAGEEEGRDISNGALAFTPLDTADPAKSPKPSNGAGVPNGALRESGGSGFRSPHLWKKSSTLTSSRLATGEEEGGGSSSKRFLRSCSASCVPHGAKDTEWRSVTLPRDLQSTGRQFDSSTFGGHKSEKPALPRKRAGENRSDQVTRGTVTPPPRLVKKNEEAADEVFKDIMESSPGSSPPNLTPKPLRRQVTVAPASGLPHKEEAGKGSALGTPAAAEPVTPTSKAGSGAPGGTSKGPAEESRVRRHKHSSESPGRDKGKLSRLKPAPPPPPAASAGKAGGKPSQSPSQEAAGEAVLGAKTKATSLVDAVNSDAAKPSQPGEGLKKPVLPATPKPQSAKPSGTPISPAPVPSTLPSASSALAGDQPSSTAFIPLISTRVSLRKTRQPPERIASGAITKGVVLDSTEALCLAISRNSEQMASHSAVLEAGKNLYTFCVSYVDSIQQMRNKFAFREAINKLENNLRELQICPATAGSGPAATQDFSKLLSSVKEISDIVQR
Protein kinase C delta type, sequence (Q05655 whole entry): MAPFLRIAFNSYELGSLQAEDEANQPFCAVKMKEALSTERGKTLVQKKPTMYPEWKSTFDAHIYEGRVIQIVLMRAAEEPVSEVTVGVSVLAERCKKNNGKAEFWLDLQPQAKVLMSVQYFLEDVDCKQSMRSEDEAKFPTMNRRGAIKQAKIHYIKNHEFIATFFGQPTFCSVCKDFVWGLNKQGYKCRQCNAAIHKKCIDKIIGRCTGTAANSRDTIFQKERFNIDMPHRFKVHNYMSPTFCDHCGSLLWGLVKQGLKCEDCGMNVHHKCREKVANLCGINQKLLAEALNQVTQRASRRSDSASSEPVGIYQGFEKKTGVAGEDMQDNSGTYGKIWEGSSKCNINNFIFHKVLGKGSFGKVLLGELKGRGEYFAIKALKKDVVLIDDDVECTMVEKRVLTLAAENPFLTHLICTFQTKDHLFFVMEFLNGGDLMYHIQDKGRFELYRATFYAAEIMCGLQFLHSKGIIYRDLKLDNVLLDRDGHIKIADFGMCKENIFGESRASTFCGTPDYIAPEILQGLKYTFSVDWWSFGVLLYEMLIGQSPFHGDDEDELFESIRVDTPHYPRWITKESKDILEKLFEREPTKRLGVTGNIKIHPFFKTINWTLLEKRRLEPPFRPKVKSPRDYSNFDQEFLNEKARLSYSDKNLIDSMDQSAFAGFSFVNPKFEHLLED

Compound | Kd [1] | Kd [2] | Kd [3] | Kd (Ephrin type-A receptor 4) | Kd (Pyridoxal kinase) | Kd [4] | Kd [5] | Kd [6] | Kd (ADP/ATP translocase 3) | Kd [7] | Kd [8]
COc1c(OCCCN2CCOCC2)ccc2c1N=C(NC(=O)c1cnc(N)nc1)N1CCN=C21 [COPANLISIB] | > 30 µM (inactive) | > 30 µM (inactive) | > 30 µM (inactive) | > 30 µM (inactive) | > 30 µM (inactive) | > 30 µM (inactive) | > 30 µM (inactive) | > 30 µM (inactive) | > 30 µM (inactive) | > 30 µM (inactive) | > 30 µM (inactive)
COCC(=O)NC/C=C/c1ccc2ncnc(Nc3ccc(Oc4ccc(C)nc4)c(C)c3)c2c1 [CP-724714] | > 30 µM (inactive) | > 30 µM (inactive) | > 30 µM (inactive) | > 30 µM (inactive) | > 30 µM (inactive) | > 30 µM (inactive) | > 30 µM (inactive) | > 30 µM (inactive) | > 30 µM (inactive) | > 30 µM (inactive) | > 30 µM (inactive)
CCS(=O)(=O)N1CCN(c2ccc(Nc3ncc(C(N)=O)c(NC4CC4)n3)cc2)CC1 [Cerdulatinib Hydrochloride] | > 30 µM (inactive) | > 30 µM (inactive) | 0.701 µM (active) | > 30 µM (inactive) | > 30 µM (inactive) | 3.82 µM (active) | > 30 µM (inactive) | 1.06 µM (active) | > 30 µM (inactive) | 0.029 µM | 0.102 µM (active)
Cc1nc2cc(-n3ncc(C(=O)c4cc5ccccc5[nH]4)c3N)ccc2[nH]1 [FGFR INHIBITOR DEBIO 1347] | > 30 µM (inactive) | > 30 µM (inactive) | > 30 µM (inactive) | > 30 µM (inactive) | 2.11 µM (active) | > 30 µM (inactive) | > 30 µM (inactive) | > 30 µM (inactive) | > 30 µM (inactive) | > 30 µM (inactive) | > 30 µM (inactive)
O=C(Nc1nc2cccc(-c3ccc(CN4CCS(=O)(=O)CC4)cc3)n2n1)C1CC1 [FILGOTINIB] | > 30 µM (inactive) | > 30 µM (inactive) | > 30 µM (inactive) | > 30 µM (inactive) | > 30 µM (inactive) | > 30 µM (inactive) | > 30 µM (inactive) | > 30 µM (inactive) | > 30 µM (inactive) | > 30 µM (inactive) | > 30 µM (inactive)
Cc1cccc(-c2nn3c(c2-c2ccnc4ccc(C(N)=O)cc24)CCC3)n1 [GALUNISERTIB] | > 30 µM (inactive) | > 30 µM (inactive) | > 30 µM (inactive) | > 30 µM (inactive) | > 30 µM (inactive) | > 30 µM (inactive) | > 30 µM (inactive) | > 30 µM (inactive) | > 30 µM (inactive) | > 30 µM (inactive) | > 30 µM (inactive)
COc1ccc(S(=O)(=O)N(C(C)=O)c2ccccc2/C=C/c2cc[n+]([O-])cc2)cc1 [HMN-214] | > 30 µM (inactive) | > 30 µM (inactive) | > 30 µM (inactive) | > 30 µM (inactive) | > 30 µM (inactive) | > 30 µM (inactive) | > 30 µM (inactive) | > 30 µM (inactive) | > 30 µM (inactive) | > 30 µM (inactive) | > 30 µM (inactive)
CNC(=O)c1cccc2cc(Oc3ccnc4cc(OCC5(N)CC5)c(OC)cc34)ccc12 [LUCITANIB] | > 30 µM (inactive) | > 30 µM (inactive) | > 30 µM (inactive) | > 30 µM (inactive) | 16.4 µM (active) | > 30 µM (inactive) | > 30 µM (inactive) | > 30 µM (inactive) | > 30 µM (inactive) | > 30 µM (inactive) | > 30 µM (inactive)
CN(C[C@@H]1COCCO1)S(=O)(=O)Nc1ccc2ccc3ncc(-c4cnn(C)c4)cc3c(=O)c2c1 [MK-2461] | > 30 µM (inactive) | > 30 µM (inactive) | > 30 µM (inactive) | > 30 µM (inactive) | > 30 µM (inactive) | > 30 µM (inactive) | > 30 µM (inactive) | > 30 µM (inactive) | > 30 µM (inactive) | > 30 µM (inactive) | > 30 µM (inactive)
Cn1cc(-c2cnc3ccc4ccc(CS(=O)(=O)NCc5ccccn5)cc4c(=O)c3c2)cn1 [MK-8033] | > 30 µM (inactive) | > 30 µM (inactive) | > 30 µM (inactive) | > 30 µM (inactive) | > 30 µM (inactive) | > 30 µM (inactive) | > 30 µM (inactive) | > 30 µM (inactive) | > 30 µM (inactive) | > 30 µM (inactive) | > 30 µM (inactive)
FC(F)(F)c1ccc(/C=C/c2nc(COc3ccc(CCCCn4ccnn4)cc3)co2)cc1 [MUBRITINIB] | > 30 µM (inactive) | > 30 µM (inactive) | > 30 µM (inactive) | > 30 µM (inactive) | > 30 µM (inactive) | > 30 µM (inactive) | > 30 µM (inactive) | > 30 µM (inactive) | > 30 µM (inactive) | > 30 µM (inactive) | > 30 µM (inactive)
COc1ncc(-c2ccc3nccc(-c4ccnnc4)c3c2)cc1NS(=O)(=O)c1ccc(F)cc1F [OMIPALISIB] | > 30 µM (inactive) | > 30 µM (inactive) | > 30 µM (inactive) | > 30 µM (inactive) | > 30 µM (inactive) | > 30 µM (inactive) | > 30 µM (inactive) | > 30 µM (inactive) | > 30 µM (inactive) | > 30 µM (inactive) | > 30 µM (inactive)
CCCCCCCCCCCCCCCCCCOP(=O)([O-])OC1CC[N+](C)(C)CC1 [PERIFOSINE] | > 30 µM (inactive) | > 30 µM (inactive) | > 30 µM (inactive) | > 30 µM (inactive) | > 30 µM (inactive) | > 30 µM (inactive) | > 30 µM (inactive) | > 30 µM (inactive) | > 30 µM (inactive) | > 30 µM (inactive) | > 30 µM (inactive)
